Assay results published in the METLIN SMRT retention time set (Domingo-Almenara et al. 2019).

experiment: gradient 5% acetonitrile 3 min, to 50% in 2 min, to 85% in 15 min, held 3 min, 100 µL/min; conditions: column: Zorbax Extend-C18 2.1 x 50 mm; eluents: water / acetonitrile, 0.1% formic acid
Method in brief: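 Pure standards were run in mixtures of ~100 molecules by HPLC coupled to a quadrupole time-of-flight mass spectrometer. The column was a Zorbax Extend-C18 (2.1 × 50 mm, 1.8 μm) at 100 μL/min, with water and acetonitrile each containing 0.1% formic acid, in positive and negative ionization mode. Dead and dwell volumes were 40 μL and 900 μL. Retention time was taken from computationally picked adduct peaks, each manually inspected, with data collected over 3 months.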

Row | SMILES | RP-LC retention time
1 | Cc1cc(-c2nnc3sc(COc4ccc(C(C)(C)C)cc4)nn23)n[nH]1 | 967 s
2 | CCc1nc(-c2ccc(C(=O)N3CCN(c4ncccn4)CC3)cc2)cs1 | 843 s
3 | COc1ccc(-c2cc(N3CCN(C(=O)NCC(C)C)CC3)ncn2)cc1OC | 623 s
4 | CCN(CC)C(=O)C1c2cc(OC)c(OC)cc2C(=O)N(C)C1c1ccc(OC)c(OC)c1 (stereo not drawn) | 706 s
5 | COc1ccc(C2=NC3(CCN(C(C)C)CC3)NC(c3cccc(OC)c3O)C2)cc1OC (stereo not drawn) | 575 s
6 | CN1c2cc(F)ccc2C(=O)NC12CCN(C(=O)Nc1ccc(F)cc1F)CC2 | 752 s
7 | COc1cccc(C2Cn3nnc(-c4nc(-c5ccc(C(C)(C)C)cc5)no4)c3CO2)c1 (stereo not drawn) | 1450 s
8 | O=C(C1CCN(S(=O)(=O)c2cc(-c3noc(C4CC4)n3)cs2)CC1)N1CCOCC1 | 793 s
9 | CN(C)S(=O)(=O)c1ccc(-c2nnc(C(=O)NCc3ccccc3Cl)o2)cc1 | 894 s
10 | O=C(CN1C(=O)NC(c2ccccc2Cl)C2=C1COC2=O)NCc1ccccc1Cl (stereo not drawn) | 801 s
11 | CC1CCCCN1CCNC(=O)c1c2c(cn(-c3ccc(F)cc3)c1=O)C(=O)CC(C)(C)C2 (stereo not drawn) | 675 s
12 | COc1cc(OC)c(NC(=O)CN2C(=O)NC(c3ccc(Cl)cc3)C3=C2COC3=O)cc1Cl (stereo not drawn) | 858 s
13 | CC(C)CC(=O)N1CC[C@@H]2COCCN(C)[C@@H]2C1 | 575 s
14 | Cc1ccnc(N2CCCC(C(=O)NCc3ccc(C)o3)C2)n1 (stereo not drawn) | 694 s
15 | Cc1csc2nc(-c3cccc(NC(=O)c4ccccc4[N+](=O)[O-])c3)cn12 | 667 s
16 | CCc1ccc(NC(=O)c2cn(CC3CCCO3)cc3c(=O)n(-c4ccccc4)nc2-3)cc1 (stereo not drawn) | 1160 s
17 | COC(=O)c1ccsc1NC(=O)Cc1ccc2c(c1)OCO2 | 888 s
18 | Cn1c(=O)c(=O)n(C)c2cc(N3CCCC3)c(NC(=O)C3CC3)cc21 | 614 s
19 | COc1cccc(C(O)CN2CCN(C3CCCCC3)CC2)c1 (stereo not drawn) | 548 s
20 | CC1Cc2ccccc2N1C(=O)CCC(=O)N1CCCN(c2cc(=O)n(C)c(=O)n2C)CC1 (stereo not drawn) | 677 s
21 | O=C(NCc1ccc(Cl)cc1)NCC(O)Cc1ccccc1 (stereo not drawn) | 721 s
22 | CC(C)(C)C1CCc2c(sc3nc(CCC(=O)N4CCC(C(N)=O)CC4)[nH]c(=O)c23)C1 (stereo not drawn) | 779 s
23 | O=C(CN1CCN(Cc2cccc(Cl)c2)C1=O)NCc1ccc(N2CCOCC2)cc1 | 736 s
24 | COc1cc2nc(C(=O)N3CCCCC3)cc(Nc3ccc(Br)cc3)c2cc1OC | 743 s
25 | CC(C)CCNC(=O)c1csc(-c2ccc(N3CCCC3)nc2)n1 | 714 s
26 | COc1cc(OC)c(NC(=O)c2c(OC)cc(=O)n3c2CCCC3)cc1Cl | 884 s
27 | O=C(NC(c1ccccc1)c1ccccc1)N1CCN(CC(F)(F)F)CC1 | 886 s
28 | CCC(C)(C(=O)NC1CCCCC1)N(Cc1ccco1)C(=O)c1ccc2c(c1)OCO2 (stereo not drawn) | 564 s
29 | Cc1ccc(NC(=O)C2(C)Oc3cccnc3N(C)C2=O)cc1 (stereo not drawn) | 845 s

Further lines, results first:

Row | RP-LC retention time | SMILES
30 | 840 s | COc1cccc(-c2nnc(SCc3cc(=O)n4c(C)csc4n3)o2)c1
31 | 721 s | CCOC(=O)N1CCN(S(=O)(=O)c2ccc(C(=O)Nc3cccc(C)n3)cc2)CC1
32 | 926 s | O=C(Nc1ccnn1Cc1ccco1)C(c1ccccc1)c1ccccc1
33 | 722 s | Cc1ccc(CNC(=O)c2cccc(-c3nc4cccnc4n3C)c2)o1
34 | 583 s | Cc1ncoc1C(=O)NCC1Cn2cccc2C(=O)N1C (stereo not drawn)
35 | 606 s | Cc1ccsc1C(=O)N1CCc2[nH]cnc2C12CCCCC2
36 | 878 s | COc1ccc(C(=O)NC2CCN(c3cc(C)cc(C)c3)C2=O)cc1 (stereo not drawn)
37 | 570 s | CCNC(=O)N1CCC(OC2CCN(Cc3ccccc3)CC2)CC1
38 | 1030 s | O=C(Nc1cc(-c2ccsc2)no1)C1(c2ccccc2)CC1
39 | 725 s | Cc1ccccc1CN1CCCN(c2ncccc2-c2nc(C(C)C)no2)CC1
40 | 759 s | COc1ccc(-c2nnc(-c3ccccc3)o2)cc1S(=O)(=O)NC(C)(C)CO
41 | 526 s | O=C(NC1CC1)[C@@H]1C[C@H](Oc2cccnc2)CN1C(=O)c1cnccn1
42 | 872 s | COCCNC(=O)c1cc2c(n(-c3ccc(C(C)C)cc3)c1=O)CCCC2=O
43 | 583 s | CC(C)NC(=O)c1ccccc1OCC1CCCNC1 (stereo not drawn)
44 | 860 s | O=C(Nc1ccc(F)c(F)c1)c1cc(C2CC2)on1
45 | 612 s | COc1ccc(-n2cc(C(=O)N3CCC(C(N)=O)CC3)nn2)cc1
46 | 708 s | Cc1cc(Cl)ccc1S(=O)(=O)NC1CCc2nn(C)c(=O)n2CC1 (stereo not drawn)
47 | 804 s | Cc1ccc(CC(=O)N2CCC3(CC2)NC(=O)c2cc(F)ccc2N3C)cc1
48 | 777 s | COc1ccccc1N1CCN(c2cc(SCC(=O)NCc3ccco3)ncn2)CC1
49 | 782 s | O=C(C(c1ccccc1)n1cccc1)N1CCCC1 (stereo not drawn)

Row | RP-LC retention time | SMILES
50 | 658 s | Cc1cc(C)cc(S(=O)(=O)Nc2ccc3nc(N4CCN(CCC#N)CC4)cc(C(=O)O)c3c2)c1
51 | 1090 s | CCCN1C(=O)Cc2c(C)nc(-c3cccc(F)c3)nc21
52 | 1100 s | COc1ccc(NC(=O)c2cc(C)n3nc(-c4ccco4)cc3n2)c(OC)c1
53 | 703 s | CCc1ccc(OCC(=O)N2CCCCC2CCN2CCCCC2)cc1 (stereo not drawn)
54 | 782 s | Fc1ccc(-c2nc3ncccn3c2NCc2ccc(Cl)cc2)cc1
55 | 625 s | Cc1ccc(NC(=O)CSc2ccc(N3CCCC(C(=O)NC4CC4)C3)nn2)c(C)c1 (stereo not drawn)
56 | 665 s | CCCCN(C(=O)C1CC1)C1CCS(=O)(=O)C1 (stereo not drawn)
57 | 896 s | CCC(=O)N(CCC1CCOC(C)(C)C1)Cc1ccc(OC)cc1 (stereo not drawn)
58 | 664 s | CCOc1ccccc1N1CCN(CC(O)c2ccc3c(c2)OCO3)CC1 (stereo not drawn)
59 | 592 s | O=C(Cn1c(-c2ccc(F)cc2)nc2ccccc21)N1CCOCC1
60 | 831 s | CCCc1ccc(C(=O)CC2(O)C(=O)Nc3ccccc32)cc1 (stereo not drawn)
61 | 955 s | Cc1ccc(S(=O)(=O)N2C[C@@H]3CN(S(=O)(=O)c4ccccc4F)C[C@H](C2)O3)cc1
62 | 632 s | Cc1noc(C)c1CC(=O)N1CCCn2ccnc2C1C(C)C (stereo not drawn)
63 | 1100 s | CCc1ccc(NC(=O)C2CCN(S(=O)(=O)c3cc(-c4noc(C5CC5)n4)cs3)CC2)cc1
64 | 929 s | Cc1ccc(C(C)C)c(OCC(=O)Nc2ccc(C(=O)O)cc2)c1
65 | 1170 s | Cn1nccc1-c1cccc(-c2noc(-c3ccccc3Cl)n2)c1
66 | 739 s | O=C(NC1CC1)c1cccc2c1CCN2C(=O)c1ccc(F)cc1
67 | 736 s | O=c1nc(SCc2csc(-c3ccccc3)n2)c2c(n1CCCO)CCC2
68 | 937 s | COC(=O)c1cccc(NC(=O)N(C)CCc2noc(C3CCCCC3)n2)c1
